Test results: patent publication US8865662B2, “Macrolides and their use” (Basilea Pharmaceutica AG, priority 2009, dated 2014)

Tested on: human PDE4
Assay: IMAP FP enzymatic assay of PDE4 inhibition
Assay type: biochemical
Details: PDE4 partially purified from human monocytic U-937 cells; fluorescently labeled cAMP substrate; 90 minutes at room temperature; fluorescence polarization
Protocol: PDE4 specifically hydrolyzes cAMP and releases the product AMP. The potency of PDE inhibition by said agents is determined in an in vitro enzymatic assay. The assay is commercially available (IMAP™ FP assay Molecular Devices Corp. (MDS)) and is optimized for the use of human PDE4. Fluorescently labeled cAMP is hydrolyzed by PDE4 and in a second step, binding of labeled product to a large binding partner allowed product detection by fluorescence polarization (FP) measurements.
PDE4 is partially purified from undifferentiated human monocytic cells (U-937) according to Thorpy et al. 1992 (J. Pharmacol. Exp. Ther. 263: 1195). […] In addition, PDE4 preparations are validated by inhibition studies with PDE4-specific and unspecific PDE inhibitors.
Stock solutions of test compounds are made in DMSO and diluted in assay buffer (10 mM Tris-HCl, 10 mM MgCl2, 0.1% BSA 0.05% NaN3, pH 7.2) to the desired concentrations. The solutions used in the assay contained test compound in assay buffer with 2% DMSO.
10 μl of substrate (at a concentration recommended by the manufacturer) are mixed with 5 μl of appropriately diluted PDE and 5 μl of test compound solution. 5 μl of reaction buffer with 2% DMSO are used for control reactions. […] After incubation for 90 minutes at room temperature, 60 μl of binding reagent are added as specified by the manufacturer. Binding is allowed to proceed for 30 minutes and fluorescence polarization is measured. Dose dependence of PDE inhibition is measured by assaying dilution series of test compounds in duplicates. IC50 values are determined from the measured activities by curve fitting.

IC50	SMILES
230 nM	CC[C@H]1OC(=O)[C@H](C)[C@@H](O[C@H]2C[C@@](C)(OC)[C@@H](O)[C@H](C)O2)[C@H](C)[C@@H](O[C@@H]2O[C@H](C)C[C@H](N(C)C(=O)N3CCOCC3)[C@H]2O)[C@](C)(OC)C[C@@H](C)C(=O)[C@H](C)[C@H]2N(CCCN(Cc3c(Cl)cncc3Cl)c3ccc(OC)c(OC4CCCC4)c3)C(=O)O[C@]12C [Example 1]
880 nM	CC[C@H]1OC(=O)[C@H](C)[C@@H](O)[C@H](C)[C@@H](O[C@@H]2O[C@H](C)C[C@H](N(C)C(=O)N3CCOCC3)[C@H]2O)[C@](C)(OC)C[C@@H](C)C(=O)[C@H](C)[C@H]2N(CCCN(Cc3c(Cl)cncc3Cl)c3ccc(OC)c(OC4CCCC4)c3)C(=O)O[C@]12C [Example 2]
630 nM	CC[C@H]1OC(=O)[C@H](C)[C@@H](O[C@H]2C[C@@](C)(OC)[C@@H](O)[C@H](C)O2)[C@H](C)[C@@H](O[C@@H]2O[C@H](C)C[C@H](N(C)C(=O)N3CCOCC3)[C@H]2O)[C@](C)(OC)C[C@@H](C)C(=O)[C@H](C)[C@H]2N(CCCOc3cc(C(=O)Nc4c(Cl)cncc4Cl)ccc3OC)C(=O)O[C@]12C [Example 3]
30 nM	CC[C@H]1OC(=O)[C@H](C)[C@@H](O)[C@H](C)[C@@H](O[C@@H]2O[C@H](C)C[C@H](N(C)C(=O)N3CCOCC3)[C@H]2O)[C@](C)(OC)C[C@@H](C)C(=O)[C@H](C)[C@H]2N(CCCOc3cc(C(=O)Nc4c(Cl)cncc4Cl)ccc3OC)C(=O)O[C@]12C [Example 4]
200 nM	CC[C@H]1OC(=O)[C@H](C)[C@@H](OC(=O)CN2CCOCC2)[C@H](C)[C@@H](O[C@@H]2O[C@H](C)C[C@H](N(C)C(=O)CN(C)C)[C@H]2O)[C@](C)(OC)C[C@@H](C)C(=O)[C@H](C)[C@H]2N(CCCOc3cc(C(=O)Nc4c(Cl)cncc4Cl)ccc3OC)C(=O)O[C@]12C [Example 5]
